Experimental data reported in patent US20050032111A1, “Cadherin-11 as an indicator of viable pregnancy” (priority 1997, published 2005).
Several values for one entry are separate records, joined by “and”; a condition that tells them apart may be missing. Equal entries are not always repeated. Entries after “also recorded” stand apart in the source; their conditions may differ. Structures can show the parent of a compound that is named as a salt.

Experiments:
cad-11 mRNA = experiment: Northern blot analysis of cad-11 mRNA in cultured endometrial stromal cells; type: cell-based, human; details: for stromal cad-11 mRNA levels over time: Example 4C, P4 1 μM, E2 30 nM, DHT 0.1 μM, 0-96 h, P4 effect continued to increase until 96 h; for cad-11 mRNA levels: Example 4B, 24 h culture, P4 0.1-1 μM, E2 30 nm
Experimental: (§1) Endometrial stroma cells were isolated from secretory endometrium as described above. The stroma cells were grown to confluence, washed with PBS, and cultured in DMEM containing charcoal stripped FCS for a further 24 h. The culture medium was removed, and after the cells had been washed twice with PBS, replaced with fresh DMEM containing charcoal stripped FCS. The cells were harvested for either Northern (see Example 5) or Western blot analysis (see Example 6) after 24 h of culture in the presence or absence of steroids in the culture medium P4 (0.1-1 μM), E2 (30 nm), or vehicle (0.1% ethanol).
(§2) Endometrial stromal cells were separated from the glandular epithelium by enzymatic digestion and mechanical dissociation as described above. The endometrial stromal cells were washed once in phenol red-free Dulbecco'e Modified Eagle's medium (DMEM) containing 10% charcoal-stripped fetal bovine serum (FBS) before being resuspended and plated in DMEM containing 25 mM glucose, […] L-glutamine, antibiotics (100 U/ml penicillin, 100 μg/ml streptomycin and 2.5 μg/ml fungizone), and supplemented with 30% charcoal-stripped FBS. The culture medium was replaced 30 min after plating in order to reduce epithelial cell contamination. The purity of the cell cultures was determined by immunocytochemical staining for vimentin, cytokeratin, muscle actin, and factor VIII.
(§3) The stromal cells (passage 2) were grown to confluence, washed with PBS, and cultured in phenol, red-free DMEM supplemented with 10% charcoal-stripped FBS is and containing either progesterone (P4 1 μM), 17β-estradiol (E2, 30 nM), the non-aromatisable androgen dihydrotestosterone (DHT, 0.1 μM) or vehicle (0.1% ethanol). The cells were cultured in the presence or absence of the steroids for 0, 6, 12, 24, 48, 72 or 96 h before being harvested for Northern or Western blot analysis as described in Examples 5 and 6 using the probe described in Example 4A.
To standardise the amounts of total RNA, the blots were also probed with a radiolabelled synthetic oligonucleotide specific for 18S rRNA. Radioautograms were scanned using an LKB laser densitometer. The absorbance values obtained for the cad-11 transcripts were normalised relative to the 18S rDNA absorbance value. Statistical differences between time points and treatments were assessed by the analysis of variance (ANOVA). Differences were considered to be significant for p <0.05.
(§4) To determine whether a combination of steroids was required for maximal cad-11 expression in endometrial stromal cells, the cells (prepared as described above) were cultured in the presence of P4 (1 μM) plus E2 (30 nM), or P4 (1 μM) plus DHT (0.1 μM) for 0, 6, 12, 24, 48, 72 or 96 h before being harvested for Northern or Western blot analysis as described above.
(§5) To determine whether the ability of E2 to potentiate the effects of P4 on stromal cad-11 expression was dose-dependent, the cells were cultured in the presence of vehicle (0.1% ethanol), E2 (30 nM), P4 (1 μM) or P4 (1 μM) plus varying doses of E2 ([…]) for 96 h. 30 nM is approximately equivalent to physiological levels. The cells were then harvested for Northern and Western blot analysis using the procedures described above.
RNA Extraction using an RNAID™ kit (BIO 101, Inc.): • 1. 500 μl cell solution+500 μl of 2M sodium acetate (pH 4.0). • 2. Vortex. • 3. Add 525 μl of chloroform/isoamyl alcohol. • 4. Vortex. • 5. Incubate on ice for 15 minutes. • 6. Spin at 4° C./10,000×g for 20 minutes. • 7. Transfer top phase (RNA rich portion) to a new vial, taking care not to touch the interface and bottom organic solvent part. • 8. Add ½ volume of chloroform/isoamyl alcohol. • 9. Vortex. • 10. Spin 2 min at 4° C./10,000×g. • 11. Transfer top phase to a new tube. • 12. Add 20 μl of RNA Matrix. • 13. Vortex 30 sec. • […].

cad-11 protein = experiment: Western blot analysis of cad-11 protein in cultured endometrial stromal cells; type: cell-based, human; details: for cad-11 protein expression levels over time: Example 4C, P4 1 μM, E2 30 nM, DHT 0.1 μM, 0-96 h, P4 effect continued to increase until 86 h [sic]
Experimental: as §1, §2, §3, §4, §5
Cell cultures were rinsed three times with PBS and drained. The cells were incubated in 100 μl of cell lysis buffer (Tris HCL, pH 7.5 containing 0.5 NP-40, 0.5 mM CaCl2, and 1.0 mM PMSF) at 4° C. for 30 min on a rocking platform. Cell lysates were collected by scraping plate with a plastic spatula. The cell lysates were centrifuged at 10,000 xg for 20 min, and the supernatant was used in the Western Blot analyses or stored at −70° C. Aliquots from the samples were subjected to SDS polyacrylamide gel electrophoresis under reducing conditions. The stacking gels contained 5% acrylamide, and the separating gels were composed of 7.5% acrylamide. The proteins were electrophoretically transferred from the gels onto nitrocellulose membrane. The nitrocellulose blots were probed with the mouse monoclonal antibody (C11-113H) directed against human cad-11 (from ICOS Corporation, Bothell, Wash.) produced as described in Example 10 below. The Amersham ECL™ system was used to detect antibody bound to antigen.

[1] = system: women presenting with primary habitual abortion and diagnosed with luteal phase deficiency; experiment: Pregnancy outcome upon treatment; type: in vivo, human; details: one line per patient 1-8
Source text: (§6) The presence of cad-11 was examined in endometrial biopsies obtained from women presenting with primary (no prior live birth) habitual abortion in association with luteal phase deficiency (LPD). This group of women, who account for approximately 20% of the women attending the Recurrent Pregnancy Loss Clinic, B.C. Women's Hospital and Health Centre, University of British Columbia, Vancouver, Canada, are routinely treated with progesterone or clomiphene citrate (a nonsteroidal synthetic compound). Biopsy specimens were obtained from these women before and after treatment. Cad-11 expression/production was correlated with pregnancy outcome upon treatment. Present treatment of LPD consists of either vaginal progesterone suppositories or clomiphene citrate, with the dosage being adjusted until a repeat endometrial biopsy is considered to be “in phase” by morphological assessment.
However, different intensities of cad-11 immunostaining in the epithelial and stromal component of the endometrium observed in this cohort of women (HSCORES=0-4: Tables 1A and 1B). […] Conversely, a negative HSCORE (0-1) following treatment correlated with a subsequent pregnancy loss (spontaneous abortion).

[2] = system: cad-11 in the endometrium; experiment: Cad-11 immunostaining (HSCORE) of endometrial biopsies after treatment; type: in vivo, human; details: for AFTER TREATMENT (HSCORE), cad-11 expression in the endometrium: women with primary habitual abortion and LPD, one line per patient 1-8; for effect of treatment on endometrial cad-11 expression: women with LPD-associated habitual abortion, degree of response variable
Experimental: The intensity of cad-11 immunostaining in the endometrial biopsies may be determined by the semiquantitative HSCORE technique which is routinely used in oncology for cancer cell counts. The HSCORE is a continuous value (from 0-4, respectively), in which a discriminatory level that designates positives and negatives for the test is determined. Typically, a consensus is made between counts carried out by two observers in a blinded fashion employing a double-headed microscope at low and high magnification.
as §6
LPD was diagnosed by traditional methods prior to determining cad-11 by immunostaining. To increase the likelihood of including only those individuals with authentic LPD, the criteria for inclusion in this study was two consecutive biopsies with a 3 days of maturation delay based on the first day of the next menses as determined by morphological assessment.
In 16 such patients, cad-11 immunostaining was examined in biopsies obtained before and after treatment with either progesterone (results shown in Table 1A) or clomiphene citrate (results shown in Table 1B). All 16 had return of normal in-phase morphology on subsequent biopsy. The endometrial biopsy specimens were then re-evaluated for cad-11 using immunohistochemical staining. Comparison of staining pattern and intensity was performed using a monoclonal antibody directed against human cadherin-11 and standard immunohistochemical techniques according to the protocol set out in Example 3. The intensity of cad-11 immunostaining in the endometrial biopsies was determined by the semiquantitative HSCORE technique as described above.
For Detection of Cad-11 in Endometrial Biopsy Specimens • Prepare diluent fresh 1% bovine serum albumin (BSA; Sigma Chem Co.)/1% Automation Buffer (AB; ESBE Lab.) (wt/vol).
For paraffin embedded endometrial biopsy specimen sections (5 μm): • 1. Wash tissue specimen thoroughly in phosphate-buffered saline (PBS). • 2. […]

[3] = Example 4E, P4 1 μM plus E2 0.5-100 nM, 96 h
[4] = Example 4E, with P4 1 μM, 96 h, versus 30 nM E2
[5] = Example 4F, cultured endometrial stromal cells
[6] = Treatment: Progesterone Suppositories

SMILES	stromal cad-11 mRNA levels over time (cad-11 mRNA)	cad-11 protein expression levels over time (cad-11 protein)	cad-11 mRNA levels (cad-11 mRNA)	regulation of cad-11 mRNA expression by steroid alone (cad-11 mRNA; [5])	regulation of cad-11 protein expression by steroid alone (cad-11 protein; [5])	effect of treatment on endometrial cad-11 expression [2]	other results
C[C@]12CCC(=O)C[C@@H]1CC[C@@H]1[C@@H]2CC[C@]2(C)[C@@H](O)CC[C@@H]12 [DHT, dihydrotestosterone]	did not significantly increase cad-11 mRNA levels	No significant increase in cad-11 expression levels					
C[C@]12CC[C@@H]3c4ccc(O)cc4CC[C@H]3[C@@H]1CC[C@@H]2O [E2, 17β-estradiol]	did not significantly increase cad-11 mRNA levels	No significant increase in cad-11 expression levels	little effect on cad-11 mRNA levels				potentiation of P4-mediated increase in stromal cad-11 mRNA by increasing doses of E2 (cad-11 mRNA; [3]): progressively enhanced the effects of P4; E2 concentration at which maximum cad-11 mRNA expression level was observed (cad-11 mRNA; Example 4E, with P4 1 μM, 96 h): 30 nM; enhancement of stromal cad-11 mRNA when E2 was increased to 100 nM (cad-11 mRNA; [4]): no further enhancement; potentiation of the progestin-mediated increase in cad-11 mRNA (cad-11 mRNA; [5]): potentiate this effect; potentiation of P4-mediated increase in stromal cad-11 protein by increasing doses of E2 (cad-11 protein; [3]): progressively enhanced the effects of P4; E2 concentration at which maximum cad-11 protein expression level was observed (cad-11 protein; Example 4E, with P4 1 μM, 96 h): 30 nM; enhancement of stromal cad-11 protein when E2 was increased to 100 nM (cad-11 protein; [4]): no further enhancement; potentiation of the progestin-mediated increase in cad-11 protein (cad-11 protein; [5]): potentiate this effect
CC(=O)[C@H]1CC[C@H]2[C@@H]3CC=C4C[C@@H](O)CC[C@]4(C)[C@H]3CC[C@]12C [Pregnenolone]				increased cad-11 expression	increased cad-11 expression		
CCN(CC)CCOc1ccc(C(=C(Cl)c2ccccc2)c2ccccc2)cc1 [clomiphene citrate]						capable of increasing endometrial cad-11 expression	PREGNANCY OUTCOME ([1]; Treatment: Clomiphene Citrate): successful; also recorded: spontaneous; AFTER TREATMENT (HSCORE), cad-11 expression in the endometrium ([2]; Treatment: Clomiphene Citrate): 4 (positive) HSCORE (2×) and 2 (equivocal) HSCORE and 1 (negative) HSCORE (2×) and 0 (negative) HSCORE and 3 (positive) HSCORE (2×)
CC(=O)O[C@]1(C(C)=O)CC[C@H]2[C@@H]3C[C@H](C)C4=CC(=O)CC[C@]4(C)[C@H]3CC[C@@]21C [medroxyprogesterone acetate]				increased cad-11 expression	increased cad-11 expression		
CC(=O)[C@H]1CC[C@H]2[C@@H]3CCC4=CC(=O)CC[C@]4(C)[C@H]3CC[C@]12C [progesterone]	significant increase in the stromal cad-11 mRNA levels after 24 h	increase in cad-11 expression after 24 h	increased cad-11 mRNA levels in a dose-dependent manner	increased cad-11 expression	increased cad-11 expression	capable of increasing endometrial cad-11 expression	PREGNANCY OUTCOME [1, 6]: successful; also recorded: spontaneous; stromal cad-11 protein (cad-11 protein; Example 4B, 24 h culture, P4 0.1-1 μM): induced an increase in stromal cad-11 protein; AFTER TREATMENT (HSCORE), cad-11 expression in the endometrium [2, 6]: 3 (positive) HSCORE (2×) and 4 (positive) HSCORE (2×) and 2 (equivocal) HSCORE and 1 (negative) HSCORE (2×) and 0 (negative) HSCORE
